In patent US5310729A, “Interferon-related polypeptides as CR2 ligands and their use for modulating immune cell functions” (California Institute of Biological Research, priority 1990, dated 1994):
Ends that are not written are not given here.

Columns and labels:
[1] = molecular target: T1, native CR2 present on Raji cells (Homo sapiens, UniProt P20023); assay: Inhibition of Zymosan-C3 rosette formation in Raji cells; assay type: cell-based; details: 10^5 Raji cells; zero to 200 μg tested, amount for the value not stated
T1 construct: native CR2 present on Raji cells; endogenous in cells; host or cells: Raji cells
T1 sequence (P20023 21-1033): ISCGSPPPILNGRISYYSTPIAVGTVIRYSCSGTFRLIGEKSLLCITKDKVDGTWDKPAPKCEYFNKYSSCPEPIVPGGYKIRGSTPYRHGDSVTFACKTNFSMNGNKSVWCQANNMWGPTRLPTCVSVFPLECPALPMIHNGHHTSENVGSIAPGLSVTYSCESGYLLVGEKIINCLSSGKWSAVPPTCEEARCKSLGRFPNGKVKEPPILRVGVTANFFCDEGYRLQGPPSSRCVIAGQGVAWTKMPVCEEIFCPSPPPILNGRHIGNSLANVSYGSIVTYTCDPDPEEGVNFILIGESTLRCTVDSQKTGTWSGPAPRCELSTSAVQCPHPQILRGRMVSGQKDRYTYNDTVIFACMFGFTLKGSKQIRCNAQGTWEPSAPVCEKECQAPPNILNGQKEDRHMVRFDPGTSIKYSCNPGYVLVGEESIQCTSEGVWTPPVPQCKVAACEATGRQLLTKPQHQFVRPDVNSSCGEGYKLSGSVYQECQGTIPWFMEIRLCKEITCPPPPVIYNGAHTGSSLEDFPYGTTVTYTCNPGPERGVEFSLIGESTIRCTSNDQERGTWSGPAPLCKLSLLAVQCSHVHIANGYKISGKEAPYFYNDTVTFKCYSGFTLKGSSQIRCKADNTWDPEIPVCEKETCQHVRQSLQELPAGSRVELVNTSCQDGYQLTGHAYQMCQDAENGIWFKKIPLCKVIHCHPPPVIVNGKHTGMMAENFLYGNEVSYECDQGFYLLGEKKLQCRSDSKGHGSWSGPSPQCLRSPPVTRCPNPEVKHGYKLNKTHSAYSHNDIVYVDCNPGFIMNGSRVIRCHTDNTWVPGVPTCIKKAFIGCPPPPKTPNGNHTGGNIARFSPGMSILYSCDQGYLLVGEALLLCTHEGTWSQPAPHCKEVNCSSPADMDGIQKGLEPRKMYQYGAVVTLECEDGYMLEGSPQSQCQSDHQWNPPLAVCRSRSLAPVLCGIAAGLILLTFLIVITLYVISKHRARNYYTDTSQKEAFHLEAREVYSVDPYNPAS
Procedure: Fresh blood was collected from a healthy donor, maintained at room temperature for 2 hours, centrifuged at 2000×g for about 10 min and the resulting supernatant collected. Five mg of Zymosan A particles (Sigma Chemical Co., St. Louis, Mo.) were boiled for 30 min in 20 ml of 150 mM NaCl and washed three times in phosphate-buffered saline (PBS) to form activated particles. One mg of activated particles was admixed with 0.5 ml of the collected blood supernatant, the admixture was maintained at 37° C. for 30 minutes, and then the particles were washed 3 times in PBS. The washed particles were re-suspended in PBS at a concentration of 0.5 mg/ml to form a C3-coated Zymosan composition.
Cultures containing 10^5 Raji cells were admixed with 100 microliters (μl ) of culture medium containing varying amounts (zero to 200 μg) of C3 or IFNαA derived polypeptides (p7 and p2 prepared in Example 1) or rIFNα prepared in Example 3b and the admixture maintained at 37° C. for 30 minutes to allow the CR2 ligand polypeptides to bind any CR2 receptor present on the Raji cells. Thereafter, 50 μl of the C3-coated Zymosan composition were added to each cell culture. […] More than 3 rosettes per cell were counted as C3 specific binding. Inhibition is expressed as the percent decrease in bound rosettes when comparing binding in the presence or absence of admixed polypeptide.

CR2 = molecular target: T2, CR2 (Homo sapiens, UniProt P20023); assay: Inhibition of CR2 binding to rIFNα by competing polypeptides; details: competing polypeptide at 100ug/ml; rIFNα solid phase, CR2 liquid phase
T2 construct: CR2 is isolated from Raji cells (ATTC CCL 86); endogenous in cells; host or cells: Raji cells (ATCC CCL 86)
T2 sequence (P20023 21-1033): T1 sequence (P20023 21-1033)
Procedure: A binding reaction admixture containing rIFNα in the solid phase and CR2 in the liquid phase was prepared as described in Example 3c except that a competing CR2 ligand shown in Table 6 was also included in the admixture at a concentration of 100ug/ml. Thereafter, the binding assay was conducted as described in Example 3c to measure the amount of CR2 specifically bound to rIFNα.

rIFNα = details: BSA added to the binding reaction admixture in place of CR2
Procedure: Various amounts of affinity-purified recombinant IFNα(rIFNα) prepared in Example 3b was added to the wells of Falcon EIA plates in 50 μl of coupling buffer (100 mM NaHC03, pH 9.3) and maintained for 2 hours at 37° C. to allow the IFNα to absorb onto the walls of the wells. Subsequently, the wells were washed by 3-fold immersion in PBS containing Tween 20 at 0.05% (referred to as PBST) and then PBST was added to the wells and the wells were maintained for 1 hour at 37° C. as a saturation step. After the wash and saturation steps, twice-affinity-purified CR2, prepared as described in Example 2, was added to each well in about 50 ul of PBST to form a binding reaction admixture containing 50 nanograms (ng) the amount of CR2 per 50 ul. The admixture was maintained for 2 hours at 37° C. to allow the added CR2 in the liquid phase to specifically bind with the rIFNα present immobilized in the solid phase on the walls of the wells. The wells were then washed with PBST to remove unbound CR2. […] The formation of p-nitrophenol was determined by measuring optical absorbance at 405 nm in a Titertek ELISA reader (Titertek Multiskan MCC/340, Metea, Va.).

In the case of QLNDLEACV [p2, QLNDLEACV], the “Percent Inhibition of Zymosan-C3 Rosette Formation in Raji Cells” value [1] is reported as 55% and the inhibition at 100 µg/mL (CR2) is reported as 48%.

For QLNDMEACV [p6, QLNDMEACV], the inhibition at 100 µg/mL (CR2) was 0%.

In the case of QLNNLEACV [p4, QLNNLEACV], the inhibition at 100 µg/mL (CR2) is reported as 45%.

For QLYNVEATS [p7, QLYNVEATS], the “Percent Inhibition of Zymosan-C3 Rosette Formation in Raji Cells” value [1] was 77% and the inhibition at 100 µg/mL (CR2) was 50%.

In the case of SPGRGD [p10, SPGRGD], the inhibition at 100 µg/mL (CR2) is reported as 0%.

In the case of bovine serum albumin [BSA], the “Binding to solid-phase rIFNα (in words)” value (rIFNα) is reported as “no dose dependent binding”.
